“Also recorded” adds a separate entry of the source. Where two headings read alike, the source gives them in different places.
What was measured:
apo-myoglobin = details: in solution, ref [23], cited from earlier work
Description: In solution, the bi-molecular association of the heme group to apo-myoglobin is thought to follow a bimodal process. Association of heme to (partially unfolded) apo-myoglobin is fast (kA ~10^8 M^−^1·s^−^1), followed by a slower structural re-arrangement (k ~500 s^−^1) to generate natively-folded holo-myoglobin (at pH 7) in which the iron atom of the heme group is then primarily coordinated by His93 [23]. Accordingly, in-solution affinity of at least partially unfolded apo-myoglobin to the heme prosthetic group has been characterized as rather strong and the complex consisting of both compone ...

[1] = test system: antiTroponin I antibody [MF4]; assay: ITEM-TWO nanoESI-MS collision induced dissociation: Troponin I peptide-antiTroponin I antibody complex (gas phase); type: binding
Description: At last, we performed ITEM-TWO experiments with an epitope peptide that was derived from human cardiac Troponin I (Tn I) against which was directed a monoclonal antiTroponin I antibody (antiTn I). Generation of the immune complex in solution and subsequent electrospraying of the entire mixture started data acquisition with the respective instrument settings as mentioned (for details see Methods section). […] Again, upon raising the collision cell voltage difference there appeared isotopically resolved ions in the low m/z range of the mass spectrum for the Troponin I epitope peptide (see insert in Figure 7) which were recorded with high mass accuracy (7 ppm).
Again, plotting norm (educts) vs. ΔCV produced a sigmoidal shaped course which represented the dependence of educt intensity on ΔCV following Boltzmann characteristics (Supplemental Figure S7). The y-axis values on the tangent line, i.e., norm (educts) , enabled to calculate ln kmg# values. […] This Arrhenius plot again provided lnA (pre-exponential factor) as the intercept with the y-axis and − ΔGmg#/R as the slope of the line (Supplemental Figure S8). In the same manner as described above, the value for km0g# was calculated. Similarly, by applying the Eyring-Polanyi equation KD m0g# was determined.
The human cardiac Troponin I epitope peptide (ENREVGDWRKNIDAL; peptides&elephants, Hennigsdorf, Germany) was obtained as lyophilized powder. The peptide was dissolved in 200 mM ammonium acetate buffer, pH 7, to obtain a peptide concentration of 1.31 µg/µL. The antiTroponin I antibody [MF4] (product code ab38210; Abcam, Cambridge, UK) was obtained dissolved in PBS buffer, pH 7.4. […] Then 200 mM ammonium acetate buffer, pH 7, were added to reach a volume of 500 µL. The solution was centrifuged at 13,000 rpm for 10 min. The filtrate was discarded. To the retentate on the filter (ca. 30 µL) 470 µL of 200 mM ammonium acetate buffer, pH 7, were added to reach a total volume of 500 µL. The solution was centrifuged again. This centrifugation/re-filling procedure was repeated eight times. After the last spinning, the filter unit was inverted into a new vial and was centrifuged at 4500 rpm for 5 min to collect the retentate (52 µL). Protein concentration was determined to be 0.33 µg/µL using the Qubit^TM 2.0 Fluorometer (Carlsbad, CA, USA) assay. […] The immune complex-containing mixture was incubated at room temperature for at least 1 h. For each measurement, 3 µL of antibody-peptide complex-containing solution were loaded into nanoESI capillaries using a microloader pipette tip (Eppendorf, Hamburg, Germany).
The m/z axis was calibrated using 1 mg/mL sodium iodide dissolved in an isopropanol/water solution (50:50, v/v). […]

[2] = test system: holo-myoglobin (apo-myoglobin—heme complex); assay: ITEM-TWO nanoESI-MS collision induced dissociation: heme loss from holo-myoglobin (gas phase); type: binding
Experimental: The mass spectral data obtained from electrospraying myoglobin (the holo-myoglobin complex consists of apo-myoglobin plus heme) were collected by following the ITEM-TWO protocol (see Methods section for in-solution handling and data acquisition steps). The ESI mass spectrum of myoglobin (Figure 4) provides an ion series of multiply charged ions from which a mean charge state of 8.1+ and an average mass of 17,566.95 ± 0.46 Da is calculated for holo-myoglobin. After having electrosprayed the myoglobin solution, and upon having switched on the collision gas and having increased the collision cell voltage difference ( ΔCV ) in a step-wise manner (5–20 V/step), dissociation of holo-myoglobin complexes caused appearance of complex-released heme ions (ligands) in the low mass ranges of the mass spectra (Supplemental Table S1). […] The m/z value of the ion that appeared in the low mass range ([heme]+) was 616.21 and corresponded precisely to the calculated values for singly protonated [heme]+ (m/z 616.18), resulting in a mass accuracy of 48 ppm.
Mean charge states of holo-myoglobin ions (m+), apo-myoglobin (n+) and heme (p+) as well as apex heights (holo-myoglobin ions (h, educts), heme ions (i, product), and apo-myoglobin ions (j, product) were extracted (Supplemental Table S2) from the triplicate measurements, averaged and normalized. For each ΔCV setting one spectrum was generated (Figure 4) and analyzed semi-quantitatively by determining Gaussian fits for all molecular/supra-molecular ion species.
All the y-values from the tangent line of the steep decline that fall within the 2dx interval around ΔCV50 are used for the calculation of ln kmg# values which are then used in the Arrhenius plot (Supplemental Figure S2). […] Then, ΔGm0g# is calculated using the van´t Hoff equation (Table 1).
A stock solution was first prepared by dissolving 5.22 mg of myoglobin (lot # 60K7007, Sigma-Aldrich, Steinheim, Germany) in 1 mL of 200 mM ammonium acetate. […] The concentration of the resulting solution was determined to be 0.5 µg/µL using a QubitTM 2.0 Fluorometer (Carlsbad, California, USA). […]

holo-myoglobin = details: gas phase, ref [19], cited from earlier work
Description: In that investigation, heme dissociation kinetics was studied (i) by spraying solutions with pH 5 and (ii) by looking at selected charge state pairs (e.g., 8+ protonated holo-myoglobin and 7+ charged apo-myoglobin). Activation energies ranged from 73 kJ/mol to 106 ...

[3] = "neutral and resting" complex, gas phase, Arrhenius extrapolation to 298 K (ΔCV = 0)

In the case of `C=CC1=C(C)c2cc3[n-]c(cc4[n-]c(cc5nc(cc1n2)C(C)=C5C=C)c(C)c4CCC(=O)O)c(CCC(=O)O)c3C.[Fe+2]` [heme], the “k of slower structural re-arrangement to natively-folded holo-myoglobin” value (apo-myoglobin; pH 7) is given as ~ 500 s^−^1 and the “kA association of heme to (partially unfolded) apo-myoglobin” value (apo-myoglobin) is given as ~ 10^8 M^−^1·s^−^1.

In the case of DYKDDDDK [FLAG], the “km0g# apparent rate constant of dissociation” value (from here on “km0g# apparent rate constant”) (antiFLAG M2 antibody; [3]) is reported as 7.9 × 10 ^10 1/s, the “∆CV50” value (antiFLAG M2 antibody; collision cell voltage difference at center of Boltzmann fit of normalized educt intensity, peptide to antibody 2.2:1, 200 mM ammonium acetate pH 7, three determinations) is reported as 89.0 V and the dx (antiFLAG M2 antibody; half of x-axis interval (2dx) of steepest educt decline in Boltzmann fit, three determinations) is reported as 19.8 V. The “binding stoichiometry, peptides bound per antibody” value (antiFLAG M2 antibody; high mass range ion triplets, charge states 21+ to 27+, mixture of seven peptides, listed as FLAG peptide) was “one bound FLAG peptide; also recorded: two bound FLAG peptides” and the “peptide released from antiFLAG antibody complex (epitope identification)” value (antiFLAG M2 antibody; mixture of seven peptides with antiFLAG antibody, 200 mM ammonium acetate pH 7, raised collision cell voltage) was “only released the FLAG peptide”.

For “ENREVGDWRKNIDAL [troponin I, peptides&elephants)]”, the “km0g# apparent rate constant” value [1, 3] was 2.2 × 10 ^12 1/s, the “∆CV50” value ([1]; collision cell voltage difference at center of Boltzmann fit of normalized educt intensity, Synapt G2S, peptide to antibody 2.2:1, 200 mM ammonium acetate pH 7, two determinations) was 26.4 V and the dx ([1]; half of x-axis interval (2dx) of steepest educt decline in Boltzmann fit, Synapt G2S, two determinations) was 15.9 V. The “binding stoichiometry, peptides bound per antibody” value ([1]; high mass range ion triplets, charge states 23+ to 28+, listed as Troponin I epitope peptide) was “one bound Troponin I epitope peptide; also recorded: two bound Troponin I epitope peptides”.

B1: myoglobin: holo-myoglobin complex consists of apo-myoglobin plus heme; lot # 60K7007, Sigma-Aldrich (protein, UniProt P68082 2-154, looked up)
Myoglobin: GLSDGEWQQVLNVWGKVEADIAGHGQEVLIRLFTGHPETLEKFDKFKHLKTEAEMKASEDLKKHGTVVLTALGGILKKKGHHEAELKPLAQSHATKHKIPIKYLEFISDAIIHVLHSKHPGDFGADAQGAMTKALELFRNDIAAKYKELGFQG
modifications: heme
notes: holo-myoglobin complex consists of apo-myoglobin plus heme; lot # 60K7007, Sigma-Aldrich
For B1, the “km0g# apparent rate constant” value [2, 3] was 5.1 × 10 ^9 1/s, the “∆CV50” value ([2]; collision cell voltage difference at center of Boltzmann fit of normalized educt intensity, Q-TOF 2, 200 mM ammonium acetate pH 7, triplicate) was 44.0 V and the dx ([2]; half of x-axis interval (2dx) of steepest educt decline in Boltzmann fit, Q-TOF 2, triplicate) was 8.5 V. For the same molecule, the “activation energy for heme dissociation” value (holo-myoglobin; 9+ protonated holo-myoglobin) was 22 kcal/mol and the “activation energy for heme dissociation” value (holo-myoglobin; 10+ protonated holo-myoglobin) was 20.3 kcal/mol.

— PMC7587528
